Some results are limits rather than exact numbers.

This assay deals with Human RSV-A (“Long” strain). Description: RSV in vitro cytoprotection assay (CPE, ATPlite) in HEp-2 cells. Type of assay: cell-based. As to conditions: human respiratory syncytial virus, 96 h; HEp-2 cells, 4-day incubation, ATPlite readout; read-out: Human RSV-A (“Long” strain) EC50. In a few lines:
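HEp-2 cells (8,000/well) given 2-fold serial compound dilutions in duplicate, then infected with sucrose-stabilised RSV-A Long stock. After 4 days, cell viability read by ATPlite luminescence, with a parallel uninfected plate for cytotoxicity. EC50 binned A<0.01 μM, B 0.01-0.05 μM, C>0.05 μM.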
As to `Cc1cnc(N2CC3(CCOCC3)C2)c(C(=O)Nc2ccc(C(=O)N3CCc4cc(-c5nc6ccccc6[nH]5)sc4-c4ccc(F)cc43)cc2)c1` [Example 3], the EC50 (usually the concentration giving half of the maximal effect) is under 10 nM.

Turning to `Cc1cnc(N2CC3(CCOCC3)C2)c(C(=O)Nc2ccc(C(=O)N3CCc4cc(C(=O)Nc5ncco5)sc4-c4ccc(F)cc43)cc2)c1` [Example 125], the EC50 was in the range of 10 to 50 nM.

With `Cc1cnc(N2CC3(CCOCC3)C2)c(C(=O)Nc2ccc(C(=O)N3CCc4cc(-c5n[nH]c6ccccc56)sc4-c4ccc(F)cc43)cc2)c1` [Example 181], the EC50 is under 10 nM.

As to `Cc1ccc(C(=O)Nc2ccc(C(=O)N3CCc4sc(-c5nc6ccccc6[nH]5)cc4-c4ccccc43)cc2)c(N2CC3(CCOCC3)C2)n1` [Example 266], the EC50 is under 10 nM.

Regarding `Cc1cnc(N2CC3(CCOCC3)C2)c(C(=O)Nc2ccc(C(=O)N3CCc4c(sc(C(=O)Nc5ncccc5C(F)(F)F)c4F)-c4ccccc43)cc2)c1` [Example 231], the EC50 is under 10 nM.

As for `Cc1ccc(C(=O)Nc2ccc(C(=O)N3CCc4sc(C(=O)Nc5c(F)cccc5F)cc4-c4ccccc43)cc2)c(N2CC3(CCOCC3)C2)n1` [Example 265], the EC50 is over 50 nM.

Regarding `Cc1cnc(N2CC3(CCOCC3)C2)c(C(=O)Nc2ccc(C(=O)N3CCc4cc(-c5c(F)cncc5F)sc4-c4ccc(F)cc43)cc2)c1` [Example 186], the EC50 lay in the range of 10 to 50 nM.

`CC1(C)CCN(c2ncccc2C(=O)Nc2ccc(C(=O)N3CCc4cc(C(=O)Nc5c(F)cccc5F)sc4-c4ccc(F)cc43)cc2)CCS1(=O)=O` [Example 49]: the EC50 is over 50 nM.

Regarding `Cc1cnc(N2CC3(CCOCC3)C2)c(C(=O)Nc2ccc(C(=O)N3CCc4c(sc(C(=O)Nc5c(F)cccc5Cl)c4F)-c4ccccc43)cc2)c1` [Example 197], the EC50 is under 10 nM.

Turning to `Cc1cnc(N2CC3(CCOCC3)C2)c(C(=O)Nc2ccc(C(=O)N3CCc4cc(-c5nnn[nH]5)sc4-c4ccc(F)cc43)cc2)c1` [Example 196], the concentration giving a half-maximal response (EC50) is over 50 nM.

Regarding `O=C(Nc1c(F)cccc1F)c1cc2c(o1)-c1ccc(F)cc1N(C(=O)c1ccc(NC(=O)c3cc4c(nc3N3CC5(CCOCC5)C3)CCCC4)cc1)CC2` [Example 241], the EC50 is under 10 nM.

As to `Cc1ccnc(NC(=O)c2sc3c(c2F)CCN(C(=O)c2ccc(NC(=O)c4cc(C)cnc4N4CC5(CCOCC5)C4)cc2)c2ccccc2-3)c1` [Example 227], the EC50 is 10 to 50 nM.

With `Cc1cnc(N2CC3(CCOCC3)C2)c(C(=O)Nc2ccc(C(=O)N3CCc4c(sc(-c5nc6cccc(C(F)(F)F)c6[nH]5)c4F)-c4ccccc43)cc2)c1` [Example 203], the EC50 fell in the range of 10 to 50 nM.

Regarding `N#Cc1cnc(N2CC3(CCOCC3)C2)c(C(=O)Nc2ccc(C(=O)N3CCc4cc(C(=O)Nc5c(F)cc(F)cc5Cl)sc4-c4ccc(F)cc43)cc2)c1` [Example 17], the EC50 was in the range of 10 to 50 nM.

As for `Cc1cnc(N2CC3(CCOCC3)C2)c(C(=O)Nc2ccc(C(=O)N3CCc4cc(-c5ncns5)sc4-c4ccc(F)cc43)cc2)c1` [Example 155], the concentration giving a half-maximal response (EC50) is under 10 nM.

As to `Cc1cnc(N2CC3(CCOCC3)C2)c(C(=O)Nc2ccc(C(=O)N3CCc4cc(C(=O)NC5CCNC5)sc4-c4ccc(F)cc43)cc2)c1` (centres unmarked) [Example 129], the half-maximal effective concentration (EC50) is over 50 nM.

Turning to `Cc1ccc(C(=O)Nc2ccc(C(=O)N3CCc4cc(C(=O)Nc5ccccc5F)sc4-c4ccc(F)cc43)cc2)c(N2CC3(CCOCC3)C2)n1` [Example 114], the EC50 is under 10 nM.

With `O=C(Nc1ccc(C(=O)N2CCc3cc(-c4nc5cc(F)c(F)cc5[nH]4)sc3-c3ccc(F)cc32)cc1)c1cccnc1N1CC2(CCOCC2)C1` [Example 41], the EC50 is over 50 nM.

`Cc1cnc(N2CC3(CCOCC3)C2)c(C(=O)Nc2ccc(C(=O)N3CCc4cc(-c5ccncc5)sc4-c4ccc(F)cc43)cc2)c1` [Example 166]: the EC50 was under 10 nM.

With `Cc1cnc(N2CC3(CCOCC3)C2)c(C(=O)Nc2ccc(C(=O)N3CCc4c(sc(-c5nc6ccc(F)cc6[nH]5)c4F)-c4ccccc43)cc2)c1` [Example 207], the EC50 is under 10 nM.

In the case of `Cc1cnc(N2CC3(CCOCC3)C2)c(C(=O)Nc2ccc(C(=O)N3CCc4c(sc(C(=O)Nc5c(C)cccc5C)c4F)-c4ccccc43)cc2)c1` [Example 208], the EC50 is under 10 nM.

With `Cc1cnc(N2CC3(CCOCC3)C2)c(C(=O)Nc2ccc(C(=O)N3CCc4cc(-c5ccncc5F)sc4-c4ccc(F)cc43)cc2)c1` [Example 162], the EC50 was under 10 nM.

On to `O=C(Nc1ccc(C(=O)N2CCc3cc(-c4nc5ccc(F)cc5[nH]4)sc3-c3ccc(F)cc32)cc1)c1cc(F)cnc1N1CC2(CCOCC2)C1` [Example 42], for which the EC50 lay within 10 to 50 nM.

Regarding `Cc1cnc(N2CC3(CCOCC3)C2)c(C(=O)Nc2ccc(C(=O)N3CCc4cc(-c5nc(C)c(C)[nH]5)sc4-c4ccc(F)cc43)cc2)c1` [Example 158], the EC50 is under 10 nM.

`Cc1cnc(N2CC3(CCOCC3)C2)c(C(=O)Nc2ccc(C(=O)N3CCc4cc(C(=O)Nc5ccnnc5)sc4-c4ccc(F)cc43)cc2)c1` [Example 127]: the concentration for a half-maximal effect (EC50) was in the range of 10 to 50 nM.

`Cc1cnc(N2CC3(CCOCC3)C2)c(C(=O)Nc2ccc(C(=O)N3CCc4cc(C(=O)Nc5ncccc5F)sc4-c4ccc(F)cc43)cc2)c1` [Example 118]: the EC50 is under 10 nM.

As for `O=C(Nc1c(F)cc(F)cc1Cl)c1cc2c(s1)-c1ccc(F)cc1N(C(=O)c1ccc(NC(=O)c3cc(C(F)(F)F)cnc3N3CCC4(CC3)COC4)cc1)CC2` [Example 30], the EC50 lay in the range of 10 to 50 nM.

As for `Cc1cnc(N2CC3(CCOCC3)C2)c(C(=O)Nc2ccc(C(=O)N3CCc4cc(-c5nc6ccccc6[nH]5)oc4-c4ccc(F)cc43)cc2)c1` [Example 243], the EC50 is under 10 nM.

For the compound `O=C(Nc1c(F)cccc1Cl)c1cc2c(o1)-c1ccccc1N(C(=O)c1ccc(NC(=O)c3cc4c(nc3N3CC5(CCOCC5)C3)CCC4)cc1)CC2` [Example 249], the EC50 was under 10 nM.

In the case of `Cc1cnc(N2CC3(CCOCC3)C2)c(C(=O)Nc2ccc(C(=O)N3CCc4cc(-c5ccnnc5)sc4-c4ccc(F)cc43)cc2)c1` [Example 189], the EC50 was under 10 nM.

As for `O=C(Nc1c(Cl)cccc1Cl)c1cc2c(o1)-c1ccccc1N(C(=O)c1ccc(NC(=O)c3cc4c(nc3N3CC5(CCOCC5)C3)CCC4)cc1)CC2` [Example 251], the EC50 is under 10 nM.

Regarding `Cc1cnc(N2CC3(CCOCC3)C2)c(C(=O)Nc2ccc(C(=O)N3CCc4cc(-c5ncc(C)o5)sc4-c4ccc(F)cc43)cc2)c1` [Example 156], the EC50 was 10 to 50 nM.

Take `Cc1cnc(N2CC3(CCOCC3)C2)c(C(=O)Nc2ccc(C(=O)N3CCc4c(sc(NC(=O)c5c(F)cncc5F)c4F)-c4ccccc43)cc2)c1` [Example 306]: the EC50 was under 10 nM.

Take `Cc1cnc(N2CC3(CCOCC3)C2)c(C(=O)Nc2ccc(C(=O)N3CCc4cc(NC(=O)c5c(C)cccc5C)sc4-c4ccccc43)cc2)c1` [Example 286]: the EC50 was in the range of 10 to 50 nM.

As for `Cc1cnc(N2CC3(CCOCC3)C2)c(C(=O)Nc2ccc(C(=O)N3CCc4cc(-c5c[nH]c6c(C)cccc56)sc4-c4ccc(F)cc43)cc2)c1` [Example 177], the EC50 lay within 10 to 50 nM.

Turning to `O=C(Nc1c(F)cc(F)cc1F)c1cc2c(s1)-c1c(cc(F)c(F)c1F)N(C(=O)c1ccc(NC(=O)c3cccnc3N3CC4(CCOCC4)C3)cc1)CC2` [Example 79], the EC50 was in the range of 10 to 50 nM.

With `O=C(Nc1ccc(C(=O)N2CCc3c(sc(C(=O)Nc4c(Cl)cccc4Cl)c3F)-c3ccccc32)cc1)c1cccnc1N1CC2(CCOCC2)C1` [Example 90], the 50% effective concentration (EC50) lay within 10 to 50 nM.

`O=C(Nc1c(F)cc(F)cc1F)c1cc2c(s1)-c1ccc(F)cc1N(C(=O)c1ccc(NC(=O)c3cc4c(nc3N3CC5(CCOCC5)C3)CCC4)cc1)CC2` [Example 67]: the 50% effective concentration (EC50) was under 10 nM.

For `O=C(Nc1c(F)cc(F)cc1Cl)c1cc2c(s1)-c1ccc(F)cc1N(C(=O)c1ccc(NC(=O)c3cc4ccccc4nc3N3CC4(CCOCC4)C3)cc1)CC2` [Example 25], the concentration for a half-maximal effect (EC50) lay within 10 to 50 nM.

As for `O=C(Nc1c(F)cc(F)cc1Cl)c1cc2c(s1)-c1ccc(F)cc1N(C(=O)c1ccc(NC(=O)c3cc4ccccc4nc3N3CCS(=O)(=O)CC3)cc1)CC2` [Example 33], the EC50 is over 50 nM.

Consider `O=C(Nc1c(F)cccc1F)c1cc2c(s1)-c1ccc(F)cc1N(C(=O)c1ccc(NC(=O)c3cccnc3N3C[C@@H]4C[C@H]3CO4)cc1)CC2` [Example 48], for which the EC50 lay within 10 to 50 nM.

For `Cc1cnc(N2CC3(CCOCC3)C2)c(C(=O)Nc2ccc(C(=O)N3CCc4c(sc(C(=O)Nc5ccccc5Cl)c4Cl)-c4ccccc43)cc2)c1` [Example 269], the EC50 lay within 10 to 50 nM.

For the compound `O=C(Nc1ccc(C(=O)N2CCc3nc(-c4nc5ccccc5[nH]4)sc3-c3ccccc32)cc1)c1cccnc1N1CC2(CCOCC2)C1` [Example 107], the EC50 was in the range of 10 to 50 nM.

For `Cc1ccc(C(=O)Nc2ccc(C(=O)N3CCc4cc(C(=O)Nc5ncccc5F)sc4-c4ccc(F)cc43)cc2)c(N2CC3(CCOCC3)C2)n1` [Example 115], the concentration giving a half-maximal response (EC50) was under 10 nM.

As for `Cc1cnc(N2CC3(CCOCC3)C2)c(C(=O)Nc2ccc(C(=O)N3CCc4cc(-c5ccccn5)sc4-c4ccc(F)cc43)cc2)c1` [Example 168], the EC50 is under 10 nM.

Take `Cc1ccc(C(=O)Nc2ccc(C(=O)N3CCc4cc(C(=O)Nc5c(C)cccc5F)sc4-c4ccc(F)cc43)cc2)c(N2CC3(CCOCC3)C2)n1` [Example 112]: the EC50 was under 10 nM.

Consider `O=C(Nc1c(F)cccc1F)c1cc2c(s1)-c1ccc(Cl)cc1N(C(=O)c1ccc(NC(=O)c3cccnc3N3CC4(CCOCC4)C3)cc1)CC2` [Example 83], for which the concentration for a half-maximal effect (EC50) is under 10 nM.

Turning to `O=C(Nc1c(F)cccc1F)c1cc2c(o1)-c1ccc(F)cc1N(C(=O)c1ccc(NC(=O)c3cc4c(nc3N3CC5(CCOCC5)C3)CCC4)cc1)CC2` [Example 239], the 50% effective concentration (EC50) was under 10 nM.

As for `O=C(Nc1ccc(C(=O)N2CCc3cc(-c4nc5cccc(F)c5[nH]4)sc3-c3ccc(F)cc32)cc1)c1cc(F)cnc1N1CC2(CCOCC2)C1` [Example 43], the EC50 fell in the range of 10 to 50 nM.

Take `Cc1cnc(N2CC3(CCOCC3)C2)c(C(=O)Nc2ccc(C(=O)N3CCc4cc(NS(=O)(=O)c5c(F)cccc5Cl)sc4-c4ccccc43)cc2)c1` [Example 291]: the half-maximal effective concentration (EC50) was over 50 nM.

These data come from patent publication US11091501B2, “Heterocyclic compounds as RSV inhibitors” (Enanta Pharmaceuticals, Inc., priority 2017, dated 2021).
